# Source: patent US6500849B1, “1-alkyl-, 1-alkenyl-, and 1-alkynylaryl-2-amino 1,3-propanediols and related compounds” (Aventis Pharmaceuticals Inc., priority 1990, dated 2002)
# How the values were obtained:
# Aspergillus Niger = assay: Antifungal assay (microtitration technique); format: cell-based; details: Aspergillus Niger strain 500/284, 5 days at 30° C.; for MIC: 120 h
# Method: (§1) The microtiter plate is prepared as follows: The wells are each filled (2 rows/strain) with 50 μl neopeptone-dextrose broth (12-channel pipette). In addition, one row/strain is coated with 50 μl yeast-nitrogen base/well for yeasts and moulds. […] All wells are then inoculated with 150 μl standardized organism suspension (yeasts: 1×10^3 organisms/ml suspension; cutaneous fungi and moulds: 1.6×10^5 organisms/ml suspension); the total volume is 200 μl per well. There is also a growth control (inoculated, not medicated), a solvent control (inoculated, not medicated, containing solvent as in medicated rows) and a negative control (not inoculated, not medicated). Incubation for 5 days at 30° C. is followed by photometric evaluation. The obtained measurements are checked visually (macroscopically and microscopically) and corrected where necessary. Criteria for Evaluation of the Antimycotic Effect a. Photometric measurements (matrix method) b. Growth, macroscopic evaluation c. Growth, microscopic evaluation (inversion light microscope, magn. 64×).
# Microsporum Canis = assay: Antifungal assay (microtitration technique); format: cell-based; details: Microsporum Canis strain 150/353, 5 days at 30° C.; for MIC: 120 h
# Method: as §1
# Trichophyton Vaginalis = assay: Antifungal assay (microtitration technique); format: cell-based; details: Trichophyton Vaginalis strain 111/216, 5 days at 30° C.; for MIC: 120 h
# Method: as §1
# Candida Albicans = assay: Antifungal assay (microtitration technique); format: cell-based; details: Candida Albicans strain 200/175, 5 days at 30° C.; for MIC: 120 h
# Method: as §1
# [1] = tested on: Trichophyton Mentagrophytes; assay: Antifungal assay (microtitration technique); format: cell-based; details: Trichophyton Mentagrophytes strain 100/25, 5 days at 30° C.; for MIC: 120 h
# Method: as §1
# Trichophyton Rubrum = assay: Antifungal assay (microtitration technique); format: cell-based; details: Trichophyton Rubrum strain 101/85, 5 days at 30° C.; for MIC: 120 h
# Method: as §1
# male CFW mice = assay: Dark avoidance assay (reversal of scopolamine induced memory deficits); format: in vivo; details: sc, scopolamine 3.0 mg/kg sc
# Method: In this assay, three groups of 15 male CFW mice were used—a vehicle/vehicle control group, a scopolamine/vehicle group, and a scopolamine/drug group. Thirty minutes prior to training, the vehicle/vehicle control group received normal saline subcutaneously, and the scopolamine/vehicle and scopolamine/drug groups received scopolamine subcutaneously (3.0 mg/kg, administered as scopolamine hydrobromide). Five minutes prior to training, the vehicle/vehicle control and scopolamine/vehicle groups received distilled water and the scopolamine/drug group received the test compound in distilled water.
# The training/testing apparatus consisted of a plexiglass box approximately 48 cm long, 30 cm high and tapering from 26 cm wide at the top to 3 cm wide at the bottom. The interior of the box was divided equally by a vertical barrier into a light compartment (illuminated by a 25-watt reflector lamp suspended 30 cm from the floor) and a dark compartment (covered). There was a hole at the bottom of the barrier 2.5 cm wide and 6 cm tall and a trap door which could be dropped to prevent an animal from passing between the two compartments. […]
# At the end of the pretreatment interval, an animal was placed in the light chamber directly under the light fixture, facing away from the door to the dark chamber. […] The latency is seconds for each mouse was recorded.
# The test day latency in seconds for each animal was recorded and the animals were then discarded.
# The high degree of variability (due to season of the year, housing conditions, and handling) found in one trial passive avoidance paradigm is well known. To control for this fact, individual cutoff (CO) values were determined for each test, compensating for interest variability. […]
# The results of the dark avoidance test are expressed as the number of animals per group (%) in which this scopolamine induced memory deficit is blocked as measured by an increase in the latency period.
# [2] = tested on: female Swiss Webster mice; assay: TPA-induced ear edema assay; format: in vivo; details: 10 μg/ear topical, after about 5 hours
# Method: In the TPA-induced ear edema assay, TPA (12-O-tetradecanoylphorbol-13-acetate) was dissolved in 30/70 propylene glycol/ethanol and was applied to the right ear of groups of 6 female Swiss Webster mice, which were housed together in a cage under standard conditions for 1 week prior to use with food and water ad lib, at a volume of 20 μl so that a total of 10 μg of TPA is delivered to the inner and outer surfaces of the ear. The test compound was dissolved in the vehicle and was applied to the right ear (the inner and outer surface) at a volume of 20 μl so that a total of 10 μg of the compound was delivered to the ear. After about 5 hours, the animals were sacrificed, a 4 mm diameter plug was taken from each ear and weighed. The difference between the right and left ear plug weights for each animal was determined. The antiinflammatory activity of the test compound is expressed as the mean percent change in the ear plug weight of the treated animals compared to the mean percent change in the plug weight of the control animals.
# Protein kinase C = Protein kinase C assay (32P incorporation into Type III histone); format: biochemical, rat; details: for IC50: rat brain protein kinase C, phosphatidylserine/diacylglycerol stimulated, read-out: Protein Kinase Inhibitory Activity IC50
# Method: (see U. Kikkawa, et al., Biochemical and Biophysical Research Communications, 135, 636 (1986) and R. M. Bell, et al. “Methods in Enzymology, Hormone Action,” Part J, P.M. Conn, Ed., Academic Press, Inc., New York, N.Y. 1986, page 353). Protein kinase C enzyme extract was prepared from the brain of male Wistar rats weighing 180 to 200 g and purified by the method of U. Kikkawa, et al., ibid. 636. The purified extract was stored at −80° C., and aliquots were used in the protein kinase C assay performed by a modification of the method of R. M. Bell, et al., ibid. al 354. To perform the assay, duplicate aliquots of duplicate samples are employed. Basal or unstimulated protein kinase C, phosphatidylserine/diacylglycerol stimulated protein kinase C, and test samples are run in each assay. […] The assay tubes were allowed to warm to 25° C. and an 8 μl mixture of adenosine 5′-triphosphate (100 μM) and ^32P-adenosine triphosphate (1 to 2×10^5 counts per minute) was added to each tube for a final volume of 80 μl per tube. After 2 min, the reaction (the incorporation of phosphorous into Type III histone) was terminated by spotting the assay mixture on phosphocellulose paper. The spots are cut out of the paper and the radioactivity (counts per min) of each spot was determined in a scintillation counter.
# Bact. distasonis = assay: Anerobic antibacterial assay (agar dilution, Wilkins-Chalgren agar); format: cell-based; details: Bact. distasonis 1366; anaerobic; 48 hours at 37° C.
# Bact. vulgatus = assay: as above; format: cell-based; details: Bact. vulgatus 1446; anaerobic; 48 hours at 37° C.
# Clost. tetani = assay: as above; format: cell-based; details: Clost. tetani 19406; anaerobic; 48 hours at 37° C.
# Propionibact. acnes = assay: as above; format: cell-based; details: anaerobic, 48 hours at 37° C.
# Fusobact. varium = assay: as above; format: cell-based; details: anaerobic, 48 hours at 37° C.
# Clost. perfringens = assay: microbe, parasite or virus in culture; format: cell-based; details: Clost. perfringens 194; anaerobic; 48 hours at 37° C.
# Bact. thetaiotaom. = assay: Anerobic antibacterial assay (agar dilution, Wilkins-Chalgren agar); format: cell-based; details: anaerobic, 48 hours at 37° C.
# Bact. fragilis = assay: as above; format: cell-based; details: anaerobic, 48 hours at 37° C.
# Peptostr. anaerobius = assay: as above; format: cell-based; details: Peptostr. anaerobius 932; anaerobic; 48 hours at 37° C.
# Bact. ovatus = assay: as above; format: cell-based; details: Bact. ovatus 103; anaerobic; 48 hours at 37° C.
# Spaeroph. freundii = assay: as above; format: cell-based; details: Spaeroph. freundii 1369; anaerobic; 48 hours at 37° C.
compound,measurement,setting,value
"Clc1ccccc1C(c1ccccc1)(c1ccccc1)n1ccnc1 [Clotrimazol, reference compound]",MIC,Aspergillus Niger,1.95 µg/mL
same,MIC,Microsporum Canis,0.06 µg/mL
same,MIC,Trichophyton Vaginalis,62.5 µg/mL
same,MIC,Candida Albicans,3.9 µg/mL
same,MIC,[1],0.97 µg/mL
same,MIC,Trichophyton Rubrum,0.24 µg/mL
"Cc1cc(C2CCCCC2)n(O)c(=O)c1 [Cyclopirox, reference compound]",MIC,Aspergillus Niger,0.97 µg/mL
same,MIC,Microsporum Canis,1.95 µg/mL
same,MIC,Trichophyton Vaginalis,15.6 µg/mL
same,MIC,Candida Albicans,1.95 µg/mL
same,MIC,[1],1.95 µg/mL
same,MIC,Trichophyton Rubrum,1.95 µg/mL
CCCCCCCCC#Cc1cccc(C(O)C(NC(C)=O)C(=O)OCC)n1 (stereo not drawn) [Ethyl erythro-2-acetamido-3-[6-(1-Decynyl)-2-pyridinyl]-3-hydroxypropionate],Percent of Animals with Scopolamine Induced Memory Deficit Reversal,male CFW mice; Dose 3.0 mg/kg,27%
CCCCCCCCCCC#Cc1cccc(C(O)C(NC(C)=O)C(=O)OCC)n1 (stereo not drawn) [Ethyl erythro-2-acetamido-3-[6-(1-Dodecynyl)-2-pyridinyl]-3-hydroxypropionate],Antiinflammatory Activity Percent Decrease in Ear Plug Weight at 10 μg/ear,[2],50%
same,IC50,Protein kinase C,29 µM
"CCCCCCCCCCC=Cc1cccc(C(O)C(CO)NC(C)=O)n1 (stereo not drawn) [cis-erythro-N-{1-[6-(1-Dodecenyl)-2-pyridinyl]-1,3-dihydroxy-2-propanyl}acetamide]","Protein Kinase Inhibitory Activity, percent inhibition at a single concentration",Protein kinase C; @ 100 μM,66% @ 100 μM
"CCCCCCCCCCCCc1cccc(C(O)C(N)CO)n1 (stereo not drawn) [erythro-2-Amino-1-(6-Dodecyl-2-pyridinyl)-1,3-propanediol]",Antiinflammatory Activity Percent Decrease in Ear Plug Weight at 10 μg/ear,[2],24%
same,IC50,Protein kinase C,8.5 µM
"CCCCCCCCCCC#Cc1ccc(C(O)C(N)CO)s1 (stereo not drawn) [erythro-2-Amino-1-[5-(1-Dodecynyl)-2-thienyl]-1,3-propanediol]","Antibacterial activity (MIC, mg/l)",Bact. distasonis,3.13 mg/L
same,"Antibacterial activity (MIC, mg/l)",Bact. vulgatus,3.13 mg/L
same,"Antibacterial activity (MIC, mg/l)",Clost. tetani,6.25 mg/L
same,"Antibacterial activity (MIC, mg/l)",Propionibact. acnes; Propionibact. acnes 6919,3.13 mg/L
same,"Antibacterial activity (MIC, mg/l)",Propionibact. acnes; Propionibact. acnes 6922,1.56 mg/L
same,"Antibacterial activity (MIC, mg/l)",Fusobact. varium; Fusobact. varium 3085,6.25 mg/L
same,"Antibacterial activity (MIC, mg/l)",Fusobact. varium; Fusobact. varium 5262,3.13 mg/L
same,"Antibacterial activity (MIC, mg/l)",Clost. perfringens,6.25 mg/L
same,"Antibacterial activity (MIC, mg/l)",Bact. thetaiotaom.; Bact. thetaiotaom. 123,3.13 mg/L
same,"Antibacterial activity (MIC, mg/l)",Bact. thetaiotaom.; Bact. thetaiotaom. 1428,6.25 mg/L
same,"Antibacterial activity (MIC, mg/l)",Bact. thetaiotaom.; Bact. thetaiotaom. 1445,3.13 mg/L
same,"Antibacterial activity (MIC, mg/l)",Bact. fragilis; Bact. fragilis 312,6.25 mg/L
same,"Antibacterial activity (MIC, mg/l)",Bact. fragilis; Bact. fragilis 960,6.25 mg/L
same,"Antibacterial activity (MIC, mg/l)",Bact. fragilis; Bact. fragilis 1313,6.25 mg/L
same,"Antibacterial activity (MIC, mg/l)",Bact. fragilis; Bact. fragilis 17390,3.13 mg/L
same,"Antibacterial activity (MIC, mg/l)",Bact. fragilis; Bact. fragilis 18125,3.13 mg/L
same,"Antibacterial activity (MIC, mg/l)",Bact. fragilis; Bact. fragilis 19016,6.25 mg/L
same,"Antibacterial activity (MIC, mg/l)",Peptostr. anaerobius,6.25 mg/L
same,"Antibacterial activity (MIC, mg/l)",Bact. ovatus,3.13 mg/L
same,"Antibacterial activity (MIC, mg/l)",Spaeroph. freundii,1.56 mg/L
same,Antifungal Activity MIC,Aspergillus Niger,3.900 µg/mL
same,Antifungal Activity MIC,Microsporum Canis,3.900 µg/mL
same,Antifungal Activity MIC,Trichophyton Vaginalis,15.625 µg/mL
same,Antifungal Activity MIC,Candida Albicans,1.950 µg/mL
same,Antifungal Activity MIC,[1],3.900 µg/mL
same,Antifungal Activity MIC,Trichophyton Rubrum,15.625 µg/mL
"CCCCCCCCC#Cc1cccc(C(O)C(CO)NC(C)=O)n1 (stereo not drawn) [erythro-N-{1-[6(1-Decynyl)-2-pyridinyl]-1,3-dihydroxy 2-propanyl}acetamide]",Percent of Animals with Scopolamine Induced Memory Deficit Reversal,male CFW mice; Dose 3.0 mg/kg,33%
"CNC(=O)Oc1ccc2c(c1)[C@]1(C)CCN(C)[C@@H]1N2C [physostigmine, reference compound]",Percent of Animals with Scopolamine Induced Memory Deficit Reversal,male CFW mice; Dose 0.31 mg/kg,20%
"CCCCCCCCCCc1cccc(C(O)C(N)CO)n1 (stereo not drawn) [threo-2-amino-1-(6-decyl)-2-pyridinyl)-1,3-propanediol] [threo-2-Amino-1-(6-Decyl-2-pyridinyl)-1,3-dihydroxypropane]",Antiinflammatory Activity Percent Decrease in Ear Plug Weight at 10 μg/ear,[2],30%
same,IC50,Protein kinase C,25 µM
